In brackets after ≈: the same amount, converted by molar mass. Where two headings read alike, the source gives them in different places.

Usually IC50 stands for the point on the concentration scale where inhibition reaches its midpoint. Usually Log P stands for a log measure of how a compound divides between an organic and an aqueous phase. Broadly, the pKa is the pH at which an ionisable group is half protonated.

One data set has as its system G-361 cells. In words: Cell viability (MTT assay), G-361 melanoma cells. It counts as cell-based, human. The note with it: for IC50: Homo sapiens, read-out: IC50 ± SD for Cell Viability, G-361. The text has this: (§1) Cytotoxicity of the plant extracts, berberine, chelerythrine, chelidonine, protopine, and sanguinarine were examined against a panel of three melanoma cell lines (A375, G-361, SK-MEL-3) characterized by different degrees of genetic complexity. Human skin fibroblasts (CRL-1474) were used in order to evaluate the effect of Saguinaria canadensis extracts against normal (i.e., non-cancerous) cells. The investigated cell lines were obtained from American Type Culture Collection (ATCC; Manassas, VA, USA). A375 and CRL-1474 cells were cultured in Dulbecco’s Modified Eagle’s Medium (DMEM) (Sigma Aldrich, St. Louis, MO, USA), supplemented with 10% heat inactivated fetal bovine serum (FBS), penicillin (100 U/mL), and streptomycin (100 µg/mL). Human melanoma SK-MEL-3 and G-361 cells were maintained in McCoy’s 5A Medium (Sigma Aldrich, St. Louis, MO, USA) supplemented with 15% (for SK-MEL-3) or 10% (for G-361) FBS, penicillin (100 U/mL), and streptomycin (100 µg/mL). The cells were maintained at 37 °C in a 5% CO2 atmosphere. The dried plant extracts and standards ([…]) were dissolved in DMSO, in order to obtain stock solutions at concentrations of 50 mg/mL. At the day of the experiment, the suspension of cells (1 × 10^5 cells/mL) in the respective medium was applied to a 96-wellplate at 100 µL per well. After 24 h of incubation, the medium was removed from the wells and replaced by increasing concentrations of plant extracts or standards in medium containing 2% FBS. The control cells were only cultured with a medium containing 2% FBS. Cytotoxicity of DMSO was also checked at concentrations present in respective dilutions of stock solutions. After 24 h of incubation, 15 µL MTT working solution (5 mg/mL in PBS) was added to each well. The plate was incubated for 3 h. Subsequently, 100 µL of 10% SDS solution was added to each well. Cells were incubated overnight at 37 °C to dissolve the precipitated formazan crystals. The concentration of the dissolved formazan was evaluated by measuring the absorbance at λ = 570 nm, using a microplate reader (Epoch, BioTek Instruments, Inc., Winooski, VT, USA). Two independent experiments were performed in triplicates. The results of the MTT assay were expressed as mean ± SD. […] IC50 values of the investigated extracts and alkaloid standards were calculated using the IC50 calculator (www.IC50.tk (accessed on 22 January 2021)).
(§2) To determine the selectivity index (SI), IC50 values for human normal fibroblasts was obtained in the same conditions as that used for cancer cell lines. Selectivity index of each compound was determined by calculating the ratio of IC50 values obtained for human normal fibroblasts and cancer cell lines.
Background: Formazan colour is commonly taken as a measure of viable cells.

For data set [1] the following is noted: source not given; cited from earlier work.
For the next data set, the system named is A375 cells. Kind of data set: Cell viability (MTT assay), A375 melanoma cells. The note with it: for IC50: Homo sapiens, read-out: IC50 ± SD for Cell Viability, A375. It counts as cell-based, human.
From the text: as §1, §2

In data set [2] the test system is SK-MEL-3 cells. Kind of data set: Cell viability (MTT assay), SK-MEL-3 melanoma cells. It counts as cell-based, human. The note with it: for IC50: Homo sapiens, read-out: IC50 ± SD for Cell Viability, SK-MEL-3.
From the text: as §1, §2

The test system of data set [3] is melanoma cell lines (A375, G-361, SK-MEL-3). In words: Cell viability (MTT assay), all three melanoma cell lines taken together. It counts as cell-based, human. The text has this: Cytotoxicity of the plant extracts, berberine, chelerythrine, chelidonine, protopine, and sanguinarine were examined against a panel of three melanoma cell lines (A375, G-361, SK-MEL-3) characterized by different degrees of genetic complexity. Human skin fibroblasts (CRL-1474) were used in order to evaluate the effect of Saguinaria canadensis extracts against normal (i.e., non-cancerous) cells. The investigated cell lines were obtained from American Type Culture Collection (ATCC; Manassas, VA, USA). A375 and CRL-1474 cells were cultured in Dulbecco’s Modified Eagle’s Medium (DMEM) (Sigma Aldrich, St. Louis, MO, USA), supplemented with 10% heat inactivated fetal bovine serum (FBS), penicillin (100 U/mL), and streptomycin (100 µg/mL). Human melanoma SK-MEL-3 and G-361 cells were maintained in McCoy’s 5A Medium (Sigma Aldrich, St. Louis, MO, USA) supplemented with 15% (for SK-MEL-3) or 10% (for G-361) FBS, penicillin (100 U/mL), and streptomycin (100 µg/mL). […] The concentration of the dissolved formazan was evaluated by measuring the absorbance at λ = 570 nm, using a microplate reader (Epoch, BioTek Instruments, Inc., Winooski, VT, USA). […] The results of the MTT assay were expressed as mean ± SD. […] IC50 values of the investigated extracts and alkaloid standards were calculated using the IC50 calculator (www.IC50.tk (accessed on 22 January 2021)).

Data set [4] deals with SK-MEL-3 cells. In words: Cell proliferation, BrdU incorporation assay. It counts as cell-based, human. The note with it: 24 h incubation, 0.25–100 µg/mL. The procedure:
The antiproliferative effect of S. canadensis extracts was measured by means of the BrdU assay, which indicates the rate of incorporation of 5′-bromo-2′-deoxy-uridine (BrdU) during DNA biosynthesis. In brief, SK-MEL-3 cells were plated in 96-well plates (NUNC, Roskilde, Denmark) at the density of 5 × 10^4 cells/mL. The next day, cells were exposed to increased concentrations (0.25–100 µg/mL) of S. canadensis extracts or cisplatin or a fresh culture medium. Cell proliferation was examined after 24 h incubation, according to the manufacturer’s protocol (Cell Proliferation ELISA BrdU, Roche Diagnostics GmbH, Penzberg, Germany). IC50 values of the investigated extracts and cisplatin were calculated using IC50 calculator [www.IC50.tk (accessed on 11 March 2021)].
Background: Incorporation of labelled thymidine or its analogues reports DNA synthesis.

Setting [5] is: G-361, MTT, 24 h exposure, medium with 2% FBS.
[6] abbreviates: A-375, MTT, 24 h exposure, medium with 2% FBS.
Setting [7] is: SK-MEL3, MTT, 24 h exposure, medium with 2% FBS.
The mark [8] stands for this setting: MTT, 24 h exposure, medium with 2% FBS.

Consider `COc1ccc2cc3[n+](cc2c1OC)CCc1cc2c(cc1-3)OCO2` [Berberine], for which the figures for the IC50 in the data set on G-361 cells (setting [5]), with A375 cells (setting [6]) and in the data set with SK-MEL-3 cells [2] (setting [7]) were 21 ± 3.25 mg/L, 51.6 ± 4.84 mg/L and 41 ± 5.36 mg/L, respectively. For the same compound, the log partition coefficient (Log P) in data set [1] was −1.3. In addition, the pKa in data set [1] is reported as −4.4.

In the case of `COc1ccc2c(c[n+](C)c3c4cc5c(cc4ccc23)OCO5)c1OC` [Chelerythrine], the values for the IC50 in the data set with G-361 cells (setting [5]), in the data set with A375 cells (setting [6]) and in the data set on SK-MEL-3 cells [2] (setting [7]) were 0.46 ± 0.07 mg/L, 0.19 ± 0.04 mg/L and 0.14 ± 0.004 mg/L, respectively. In addition, the “Log P” value in data set [1] is −0.88. Moreover, the pKa in data set [1] is listed as −4.4.

On to `CN1Cc2c(ccc3c2OCO3)[C@@H]2[C@H]1c1cc3c(cc1C[C@@H]2O)OCO3` [Chelidonine], for which the IC50 with G-361 cells (G-361, 24 h) is > 50 mg/L; in the data set on A375 cells (A-375, 24 h), > 50 mg/L; in data set [3] (Homo sapiens, 24 h, read-out: IC50, cell viability, across all tested melanoma cell lines, A375, G-361, SK-MEL-3), > 50 mg/L; in the data set on SK-MEL-3 cells [2] (SK-MEL3, 24 h) it was > 50 mg/L. The “Log P” value in data set [1] is given as 2.05. Also, the pKa in data set [1] is listed as 5.73.

`N.N.[Cl][Pt][Cl]` [Cisplatin]: the “IC50 ± SD for Cell Viability, G-361” value in the data set with G-361 cells (setting [8]) stood at 11.53 ± 1.46 mg/L. In the data set on SK-MEL-3 cells [4], the “IC50 ± SD for Cell Proliferation Measured by BrdU Incorporation in SK-MEL-3 Cells” value came out at 24.84 ± 3.60 mg/L. Besides, the “IC50 ± SD for Cell Viability, A375” value in the data set with A375 cells (setting [8]) was determined as 10.62 ± 1.04 mg/L. The “IC50 ± SD for Cell Viability, SK-MEL-3” value with SK-MEL-3 cells [2] (setting [8]) stood at 14.42 ± 1.61 mg/L.

On to `COc1cc([C@@H]2c3cc4c(cc3[C@@H](O[C@@H]3O[C@@H]5CO[C@@H](C)O[C@H]5[C@H](O)[C@H]3O)[C@H]3COC(=O)[C@H]23)OCO4)cc(OC)c1O` [Etoposide], for which the IC50 was 52.3 ± 3.86 mg/L (≈ 88.9 µM) in the data set with G-361 cells (setting [5]), 92.3 ± 4.58 mg/L (≈ 157 µM) in the data set on A375 cells (setting [6]) and > 200 mg/L in the data set with SK-MEL-3 cells [2] (setting [7]).

With `NC(=O)NO` [Hydroxyurea], in the data set with G-361 cells (setting [8]), the “IC50 ± SD for Cell Viability, G-361” value is >200 mg/L. In addition, in the data set on A375 cells (setting [8]), the “IC50 ± SD for Cell Viability, A375” value was >200 mg/L. For the same compound, the “IC50 ± SD for Cell Viability, SK-MEL-3” value in the data set with SK-MEL-3 cells [2] (setting [8]) was >200 mg/L.

Turning to `C[n+]1cc2c3c(ccc2c2ccc4cc5c(cc4c21)OCO5)OCO3` [Sanguinarine], the IC50 came to 0.17 ± 0.02 mg/L in the data set on G-361 cells (G-361, 24 h); 0.11 ± 0.003 mg/L with A375 cells (A-375, 24 h); 0.54 ± 0.16 mg/L with SK-MEL-3 cells [2] (SK-MEL3, 24 h). In data set [1], the “Log P” value is on record as −0.94. Also, the pKa in data set [1] is reported as −4.5.

For Protopine, the “IC50 ± SD for Cell Viability, G-361” value in the data set on G-361 cells (setting [8]) was >50 mg/L. Moreover, in data set [1], the “Log P” value is recorded as 2.59 and the pKa is reported as 4.95. For the same compound, the “IC50 ± SD for Cell Viability, A375” value with A375 cells (setting [8]) is >50 mg/L. The “IC50, cell viability, across all tested melanoma cell lines” value in data set [3] (A375, G-361, SK-MEL-3, 24 h) is recorded as “more than 50 µg/mL”. The “IC50 ± SD for Cell Viability, SK-MEL-3” value in the data set on SK-MEL-3 cells [2] (setting [8]) is >50 mg/L.

The values above are taken from PMC8003779, “Determination of Cytotoxic Activity of Sanguinaria canadensis Extracts against Human Melanoma Cells and Comparison of Their Cytotoxicity with Cytotoxicity of Some Anticancer Drugs” (Molecules, 2021).
